# How the values were obtained:
# IRAK4 [1] = molecular target: T1, IRAK4 (Homo sapiens, UniProt Q9NWZ3); assay: WB detection of proteolysis (Western Blot, THP-1 cells); type: cell-based; conditions: Western Blot, THP-1 cells, 24 h
# T1 sequence (Q9NWZ3 1-460): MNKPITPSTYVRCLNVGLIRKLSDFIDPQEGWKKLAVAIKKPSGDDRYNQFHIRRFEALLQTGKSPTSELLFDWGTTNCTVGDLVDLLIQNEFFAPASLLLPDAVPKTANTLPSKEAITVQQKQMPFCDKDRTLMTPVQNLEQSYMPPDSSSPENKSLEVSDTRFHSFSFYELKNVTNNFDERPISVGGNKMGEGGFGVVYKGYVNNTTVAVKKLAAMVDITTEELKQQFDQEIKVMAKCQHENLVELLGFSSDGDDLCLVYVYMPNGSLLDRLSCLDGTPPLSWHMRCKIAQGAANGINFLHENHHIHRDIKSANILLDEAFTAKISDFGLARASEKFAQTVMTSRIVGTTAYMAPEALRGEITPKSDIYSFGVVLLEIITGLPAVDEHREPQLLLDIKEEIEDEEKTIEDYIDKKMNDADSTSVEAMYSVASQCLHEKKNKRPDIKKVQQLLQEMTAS
# How it was run: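 IRAK4 level in RIPA lysates read by Western blot with Odyssey imaging; values from bell-shaped non-linear fit with two four-parameter sections (Plateau1, Plateau2, Dip, LogEC50_1/2, nH1/2).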
# IRAK4 [2] = molecular target: T2, IRAK4 (Mus musculus, UniProt Q8R4K2); conditions: Balb/c mice, 24 h
# T2 sequence (Q8R4K2 1-459): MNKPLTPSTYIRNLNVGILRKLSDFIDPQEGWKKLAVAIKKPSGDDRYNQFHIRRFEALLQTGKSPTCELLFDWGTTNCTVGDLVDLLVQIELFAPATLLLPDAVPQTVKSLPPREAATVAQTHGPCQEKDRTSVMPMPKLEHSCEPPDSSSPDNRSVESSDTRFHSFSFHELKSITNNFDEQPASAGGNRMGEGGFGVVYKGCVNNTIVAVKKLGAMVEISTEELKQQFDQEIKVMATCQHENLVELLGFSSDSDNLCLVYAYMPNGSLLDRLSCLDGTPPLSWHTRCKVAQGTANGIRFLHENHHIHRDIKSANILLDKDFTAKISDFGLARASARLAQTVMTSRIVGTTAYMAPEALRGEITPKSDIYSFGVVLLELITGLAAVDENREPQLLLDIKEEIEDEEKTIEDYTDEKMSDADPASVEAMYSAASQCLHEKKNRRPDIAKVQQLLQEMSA
# Experimental: Experiment materials: Female Balb/c mice, 6-8 weeks old, 18-20 grams were used in the experiment and were provided by Vital River Laboratory Animal Technology Co., Ltd.
# Experimental method: The experiment started after the experimental animals were acclimated to the animal facility environment for 3 days. […] After 24 h, the animals were euthanized, and whole blood and spleen tissue were collected. The whole blood was temporarily placed on wet ice for subsequent PBMC extraction, and the spleen tissue was quickly placed in dry ice. PBMC extraction: 1.5 ml of red blood cell lysis buffer was added to the whole blood, and the obtained mixture was tapped with fingers for mixing, placed at room temperature in the dark for 5 min, and centrifuged at 400 g for 5 min, and the supernatant was discarded. The above steps were repeated twice. Then, 1.5 ml of DPBS was added and mixed uniformly. The mixture was centrifuged at 400 g for 5 min, and the obtained precipitate was PBMC. The PBMC was stored in a -80°C refrigerator for subsequent Western blot analysis. PBMC sample processing: The PBMC samples were placed on wet ice. 50 µL of lysis buffer was separately added to lyse the samples for 30 min, and the mixture was centrifuged at 12500 rpm for 15 min. The protein was quantified by the BCA method. […] The protein was quantified by BCA method. […]
# IRAK4 [3] = molecular target: T1, IRAK4; assay: Hibit fluorescence detection of proteolysis (IRAK4-HiBiT in HEK293T cells); type: cell-based; parameters: host or cells: HEK293T (ATCC)
# How it was run: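 Degradation read-out: luminescence from lytic HiBiT detection (15 min, room temperature) after 24 h compound exposure (37 °C, 5% CO2) of HEK293T cells transiently expressing IRAK4 fused to a HiBiT tag. Data fitted to a bell-shaped four-parameter model giving two EC50 values.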
compound,measurement,setting,value
Cn1c(=O)n(C2CCC(=O)NC2=O)c2cccc(N3CCC(N4CCN(C[C@H]5CC[C@H](n6cc(-n7cc(-c8cnn9ccc(N%10CCC[C@H](O)C%10)nc89)nn7)c(C(F)F)n6)CC5)CC4)CC3)c21 (stereo partly drawn) [Example 146],DC50,IRAK4 [1]; read-out: DC50,< 10 nM
same,Dmax,IRAK4 [1]; read-out: Dmax,> 70%
same,expression level of IRAK4 protein in the spleen and PBMC,"IRAK4 [2]; single oral dose 10, 30, 100 mg/kg, compared with the blank control group",significantly inhibit
same,proteolysis ability for spleen IRAK4,"IRAK4 [2]; single oral dose, three doses of 10, 30, and 100 mpk, compared with KT474",significantly superior to KT474
same,Dmax,IRAK4 [3]; HEK-293T,> 80%
same,DC50,"IRAK4 [3]; IRAK4-HiBiT, HEK293T cells, 24 h",< 0.5 nM
